According to patent US4880014A, “Method for determining therapeutic drug dosage using bioelectrical resistance and reactance measurements” (priority 1988, dated 1989):
Several values for one entry are separate records, joined by “and”; a condition that tells them apart may be missing. Identical values can stand only once.

How the values were obtained:
[1] = Theophylline pharmacokinetics in fifteen normal adult males from serum concentrations (Lagran), and dose calculated from measured Cl; type: in vivo, human
Source text: Fifteen normal adult males were used in the following study. Each subject was given a single intravenous dosage of theophylline.
Serial blood samples were obtained, for all fifteen patients, from an intravenous catheter placed in the arm.
F=1.0, assuming 100% oral absorption

[2] = Theophylline Cl, K and V predicted by bioelectrical impedance (multiple regression), and dose calculated from predicted Cl; set-up: species or system human; details: two-sided t-test
Source text: An excitation current of 800 microamps and frequency of 50 kHz was then applied and (R) and (Xc) values obtained.
The independent variables set forth in Table VII were used in a stepwise multiple linear regression program to produce the models of best definition for (Cl), (K) and (V) by entering each patients individual variables (Cl), (V) and (K) into the program. It then fits a linear least-squares regression model to the entire set of independent variables to identify the best independent variables and their coefficients for the description of the […] dependent variables (Cl), (K) and (V). Insignificant variables were dropped from the model. The equations generated are those set forth previously as Equation 3, Equation 4 and Equation 5.
Other internationally recognized programs could also be used and may include BMDP (Biomedical Data Processing) and SPSS (Statistical Programming for the Social Sciences).
In Table VIII, clearance (Cl), elimination rate constant (K), and volume of distribution (V), determined for theophylline using a multiple regression analysis produced F variable sequence defined in Tables VII and IX are shown in columns B, D, and F, respectively. Table VII is the model sequence used to solve for (Cl), (K) and (V) as derived by stepwise regression analysis. […]

[3] = Gentamicin K and V predicted by bioelectrical impedance (multiple regression), and dosage regimen calculated from predicted K, V; set-up: species or system human; details: two-sided T-test
Experimental: Twelve human subjects participated in the following study. The resistance (R) and the reactance (Xc) of each patient was measured using a four-terminal impedance plethysmograph. During the measurement, the subjects were placed in the supine position on an insulative surface. The electrodes were attached in the following manner. Those areas of the patient's skin where the electrodes were to be connected were cleaned thoroughly with alcohol. The four pre-gelled electrodes were then attached to the patient such that one current electrode was attached to the dorsal surface of the patient's right hand at the distal metacarpals, one current electrode was attached to the patient's right foot at the location of the distal metatarsals, one detector electrode was connected to the patients right wrist at the right pisiform prominence, and one detector electrode was connected to the patient's right ankle between the medial and lateral malleoli. An excitation current of 800 microamps and frequency of 50 kHz was then applied and R and Xc values obtained. […]
(§1) Calculation of (K) and (V) from the measured serum concentration data was performed as were the dosage regimens using the measured serum concentration data by the equations of Sawchuk and Zaske which will be known to those skilled in the art.

[4] = Simulation of gentamicin peak and trough serum concentrations for an average 70 kg patient; set-up: species or system human
Experimental: Serum concentrations were then simulated for an average 70 kg patient given a one-hour infusion of the dose to achieve a postdose serum concentration of 6.0 mcg/ml and a predose serum concentration of 1.0 mcg/ml. This simulation was performed with the values of (K) and (V) determined by measured serum concentrations and the calculated dosage regimen from these measured (K) and (V) values, is recorded, respectively, in columns A and B of Table VI. A simulation was also performed with the dosage regimen determined by the bioelectrical impedance analysis of the present invention, using the patient's actual measured (K) and (V), to test the prediction error of the method of dosing of the present invention. Equations A and B which were discussed earlier were used for calculating dosing interval and dose. The latter is recorded respectively in columns C and D of Table VI.

[5] = human, in vivo, iv
Experimental: Twelve human subjects participated in the following study. The resistance (R) and the reactance (Xc) of each patient was measured using a four-terminal impedance plethysmograph. During the measurement, the subjects were placed in the supine position on an insulative surface. The electrodes were attached in the following manner. Those areas of the patient's skin where the electrodes were to be connected were cleaned thoroughly with alcohol. […]
The elimination rate constant was determined by nonlinear regression analysis of the serum concentration data for each patient using Micrononlin (Micrononlin, Elite Software, box 11223. Pittsburgh. PA 15238).
Volume of distribution was calculated by the Sawchuk-Zaske method.
as §1

Compound | clearance ([1]; human, serum, iv, 4 mg/kg, mean of fifteen subjects, column A, read-out: Clearance (Cl), Meas., MEAN (converted)) [mL/min] | k el ([1]; human, serum, iv, 4 mg/kg, mean of fifteen subjects, column C, read-out: Elimination Rate Constant (K), Meas., MEAN (converted)) [s⁻¹] | Vd ([1]; human, serum, iv, 4 mg/kg, mean of fifteen subjects, column E, read-out: Volume of Distribution (V), Meas., MEAN) [L] | Elimination Rate Constant (K), Meas. ([1]; individual patients (Pt. 1-15), single intravenous 4 mg/kg, 30 minute infusion, column C) | Comparison of K, V, Cl and dosage regimens, bioelectrical impedance vs measured serum concentrations [2] | Comparison of K, V and dosage regimens, bioelectrical impedance vs measured serum concentration [3] | Comparison of postdose or predose concentrations simulated from measured K, V vs bioelectrical impedance K, V [4] | Elimination Rate Constant (K), Meas., mean [5] | Serum concentrations for all twelve patients [5] [ng/mL]
Cn1c(=O)c2[nH]cnc2n(C)c1=O [theophylline] | 52.3 | 2.36e-05 | 39.4 | .0885 h and .0631 h and .0591 h and .0521 h and .0813 h and .0895 h and .1241 h and .0305 h and .1895 h and .0815 h and .0938 h and .0921 h and .0713 h and .0774 h | no statistically significant differences | – | – | – | –
gentamicin | – | – | – | – | – | no statistically significant differences | no statistically significant differences | .270 hr -1 | 2000 to 10000
